# Measurements as given in patent US8846699B2, “Quinazoline derivatives as a multiplex inhibitor and method for the preparation thereof” (Hanmi Pharm. Co., Ltd., priority 2005, dated 2014).
# Assays:
# [1] = test system: skin cancer cell line, A431; assay: Inhibitory effect on growth of cancer cell line A431, SRB; format: cell-based; details: overexpressed EGFR1 (HER-1)
# Outline: (§1)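 Cells were cultured in DMEM with 10% FBS. Compounds were applied at 10 μM with 10-fold serial dilution to 10^−4, DMSO <1%, for 72 h at 37 °C. Cells were then TCA-fixed and stained with 0.4% SRB, and absorbance was read at 570 nm after solubilisation in 10 mM Tris base.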
# VEGFR2 (KDR) = VEGFR2 (KDR) (Homo sapiens (Human), UniProt P35968); assay: VEGFR2 (KDR) enzyme assay, fluorescence polarization; format: biochemical; details: 5 μM ATP, poly(Glu, Tyr) substrate
# Chain of VEGFR2 (KDR) (P35968 20-1356): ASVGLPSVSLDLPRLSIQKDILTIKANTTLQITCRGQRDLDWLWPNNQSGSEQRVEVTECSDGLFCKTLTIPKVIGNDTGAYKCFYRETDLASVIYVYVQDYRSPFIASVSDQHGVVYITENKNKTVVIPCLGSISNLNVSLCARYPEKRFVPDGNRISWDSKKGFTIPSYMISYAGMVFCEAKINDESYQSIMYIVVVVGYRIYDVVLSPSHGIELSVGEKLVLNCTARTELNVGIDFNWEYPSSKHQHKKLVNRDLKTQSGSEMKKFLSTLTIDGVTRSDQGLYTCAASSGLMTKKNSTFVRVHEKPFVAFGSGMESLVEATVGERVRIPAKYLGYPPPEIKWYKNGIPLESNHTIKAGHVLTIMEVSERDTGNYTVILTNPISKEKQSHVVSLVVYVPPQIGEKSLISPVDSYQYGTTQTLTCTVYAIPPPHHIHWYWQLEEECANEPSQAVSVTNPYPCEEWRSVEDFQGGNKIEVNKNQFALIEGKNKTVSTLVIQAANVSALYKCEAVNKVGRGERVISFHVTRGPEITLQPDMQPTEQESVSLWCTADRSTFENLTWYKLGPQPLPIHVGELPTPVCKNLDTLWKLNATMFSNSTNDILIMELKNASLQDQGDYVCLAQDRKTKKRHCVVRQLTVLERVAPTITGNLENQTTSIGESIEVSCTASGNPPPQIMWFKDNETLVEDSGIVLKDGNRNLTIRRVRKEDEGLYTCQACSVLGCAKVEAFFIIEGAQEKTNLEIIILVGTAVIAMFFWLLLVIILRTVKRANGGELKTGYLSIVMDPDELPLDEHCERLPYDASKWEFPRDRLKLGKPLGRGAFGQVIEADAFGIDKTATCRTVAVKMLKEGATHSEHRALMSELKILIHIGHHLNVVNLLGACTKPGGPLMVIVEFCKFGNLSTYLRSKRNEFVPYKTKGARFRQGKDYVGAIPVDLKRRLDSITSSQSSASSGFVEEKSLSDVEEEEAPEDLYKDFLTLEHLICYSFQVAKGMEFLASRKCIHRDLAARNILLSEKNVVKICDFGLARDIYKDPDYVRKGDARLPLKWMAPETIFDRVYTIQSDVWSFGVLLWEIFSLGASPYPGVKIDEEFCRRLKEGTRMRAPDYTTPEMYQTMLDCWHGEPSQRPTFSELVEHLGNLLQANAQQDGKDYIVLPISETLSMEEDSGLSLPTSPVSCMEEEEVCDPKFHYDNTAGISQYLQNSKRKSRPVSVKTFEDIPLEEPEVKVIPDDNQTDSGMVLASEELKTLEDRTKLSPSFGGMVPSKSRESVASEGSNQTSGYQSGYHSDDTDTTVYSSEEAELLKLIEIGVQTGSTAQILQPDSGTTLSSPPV
# Outline: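 Autophosphorylation read by fluorescence polarization: VEGFR2 (Proquinase) at 200 ng/10 μl with 5 μM ATP and 10 ng/ml poly(Glu,Tyr) 4:1, in 20 mM HEPES pH 7.4, 5 mM MgCl2, 2 mM MnCl2, 50 μM Na3VO4. Reaction 1 h at room temperature, EDTA stop, then anti-phosphotyrosine antibody/tracer for 30 min in the dark.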
# [2] = test system: breast cancer cell line, SK-Br3; assay: Inhibitory effect on growth of cancer cell line SK-Br3, SRB; format: cell-based; details: overexpressed EGFR2 (HER-2)
# Outline: as §1
# [3] = test system: Human Umbilical Vein Endothelial Cell (HUVEC); assay: Inhibitory effect on growth of human umbilical vein endothelial cell (HUVEC), MTS; format: cell-based; details: 10 ng/ml VEGF, absorbance 490 nm
# EGFR1 (HER-1) = EGFR1 (HER-1) (Homo sapiens (Human), UniProt P00533); assay: EGFR1 (HER-1) enzyme assay, fluorescence polarization; format: biochemical; details: 100 μM ATP, poly(Glu, Tyr) substrate
# [4] = test system: colon and rectal cancer cell line, SW-620; assay: Inhibitory effect on growth of cancer cell line SW-620, SRB; format: cell-based; details: not having overexpressed EGFR and EGFR2
# Outline: as §1
"IC50 ([1]; Homo sapiens, A-431, 72 h) [nM]",IC50 (VEGFR2 (KDR)) [nM],"IC50 ([2]; Homo sapiens, SK-BR-3, 72 h) [nM]",IC50 (EGFR1 (HER-1)) [nM],"IC50 ([4]; Homo sapiens, 72 h) [nM]",Compound,"IC50 ([3]; Homo sapiens, 96 h) [nM]",IC50 ([1]; 72 hours) [nM],IC50 ([2]; 72 hours) [nM],IC50 ([3]; 96 hours) [nM],IC50 ([4]; 72 hours) [nM]
58,268,289,49,2200,"C=CC(=O)Nc1cc2c(Nc3ccc(Cl)cc3Cl)ncnc2cc1OCCNC(C)=O [Example 113, N-[7-(2-acetylamino-ethoxy)-4-(4-chloro-2-chloro-phenylamino)-quinazolin-6-yl]-acrylamide]",369,,,,
90,457,225,98,9560,"C=CC(=O)Nc1cc2c(Nc3ccc(Br)cc3F)ncnc2cc1OCCNC(=S)NC [Example 35, N-{4-(4-bromo-2-fluoro-phenylamino)-7-[2-(3-methyl-thioureido)-ethoxy]-quinazolin-6-yl}-acrylamide]",951,,,,
,279,,956,,N-{2-[6-acryloylamino-4-(4-bromo-2-fluoro-phenylamino)-quinazolin-7-yloxy]-ethyl}-malonic acid [Example 70],,973,10000,365,9570
8,857,76,7,2920,"C=CC(=O)Nc1cc2c(Nc3ccc(Br)cc3F)ncnc2cc1OCCNC(=O)CN1CCCCC1 [Example 101, N-{4-(4-bromo-2-fluoro-phenylamino)-7-[2-(2-piperidin-1-yl-acetylamino)-ethoxy]-quinazolin-6-yl}-acrylamide]",964,,,,
30,654,100,25,6700,"C=CC(=O)Nc1cc2c(Nc3ccc(Br)cc3F)ncnc2cc1OCCNC(=O)C1CCCN1C(C)=O (stereo not drawn) [Example 105, 1-acetyl-pyrrolidine-2-carboxylic acid {2-[6-acryloylamino-4-(4-bromo-2-fluoro-phenylamino)-quinazolin-7-yloxy]-ethyl}-amide]",654,,,,
48,200,119,45,3590,"C=CC(=O)Nc1cc2c(Nc3ccc(Br)cc3F)ncnc2cc1OCCNC(=O)CN1CCCC1 [Example 107, N-{4-(4-bromo-2-fluoro-phenylamino)-7-[2-(2-pyrrolidin-1-yl-acetylamino)-ethoxy]-quinazolin-6-yl}-acrylamide]",289,,,,
25,136,147,15,5680,"C=CC(=O)Nc1cc2c(Nc3ccc(Br)cc3F)ncnc2cc1OCC1CCN(C(N)=O)CC1 [Example 4, 4-[6-acryloylamino-4-(4-bromo-2-fluoro-phenylamino)-quinazolin-7-yloxymethyl]-piperidin-1-carboxylic acid amide]",87,,,,
72,231,360,70,4590,"C=CC(=O)Nc1cc2c(Nc3ccc(Br)cc3F)ncnc2cc1OCCNC(=O)CCOC [Example 64, N-{4-(4-bromo-2-fluoro-phenylamino)-7-[2-(3-methoxy-propionylamino)-ethoxy]-quinazolin-6-yl}-acrylamide]",298,,,,
68,309,153,58,9520,"C=CC(=O)Nc1cc2c(Nc3ccc(Br)c(Cl)c3F)ncnc2cc1OCCNC(=O)CN(CC)CC [Example 151, N-{4-(4-bromo-3-chloro-2-fluoro-phenylamino)-7-[2-(2-diethylamino-acetylamino)-ethoxy]-quinazolin-6-yl}-acrylamide]",351,,,,
22,218,242,19,2980,"C=CC(=O)Nc1cc2c(Nc3ccc(Br)c(F)c3F)ncnc2cc1OCCNC(=O)CCN(CC)CC [Example 125, N-{4-(4-bromo-2,3-difluoro-phenylamino)-7-[2-(3-diethylamino-propionylamino)-ethoxy]-quinazolin-6-yl}-acrylamide]",657,,,,
21,324,245,20,2580,"C=CC(=O)Nc1cc2c(Nc3ccc(Br)cc3F)ncnc2cc1OCCNC(=O)NC(C)CC (stereo not drawn) [Example 38, N-{4-(4-bromo-2-fluoro-phenylamino)-7-[2-(3-sec-butyl-ureido)-ethoxy]-quinazolin-6-yl}-acrylamide]",367,,,,
426,471,437,589,4540,"C=CC(=O)Nc1cc2c(Nc3ccc(Br)cc3F)ncnc2cc1OCCNCC(C)=O [Example 55, N-{4-(4-bromo-2-fluoro-phenylamino)-7-[2-(2-oxo-propylamino)-ethoxy]-quinazolin-6-yl}-acrylamide]",359,,,,
95,1120,118,57,10000,"C=CC(=O)Nc1cc2c(Nc3ccc(Br)cc3F)ncnc2cc1OCCNC(=O)C(COC)N(C)C (stereo not drawn) [Example 161, N-{4-(4-bromo-2-fluoro-phenylamino)-7-[2-(2-dimethylamino-3-methoxy-propionylamino)-ethoxy]-quinazolin-6-yl}-acrylamide]",1230,,,,
34,94,71,26,10000,"C=CC(=O)Nc1cc2c(Nc3ccc(Br)cc3F)ncnc2cc1OCC(C)NC(=O)CC (stereo not drawn) [Example 84, N-[4-(4-bromo-2-fluoro-phenylamino)-7-(2-propionylamino-propoxy)-quinazolin-6-yl]-acrylamide]",113,,,,
15,489,79,14,725,"C=CC(=O)Nc1cc2c(Nc3ccc(F)c(F)c3F)ncnc2cc1OCCNC(C)=O [Example 118, N-[7-(2-acetylamino-ethoxy)-4-(2,3,4-trifluoro-phenylamino)-quinazolin-6-yl]-acrylamide]",681,,,,
39,450,813,9,10000,"C=CC(=O)Nc1cc2c(Nc3ccc(Br)cc3F)ncnc2cc1OCCN(C)C [Example 19, N-[4-(4-bromo-2-fluoro-phenylamino)-7-(2-dimethylamino-ethoxy)-quinazolin-6-yl]-acrylamide]",350,,,,

Compound,"IC50 ([1]; Homo sapiens, A-431, 72 h) [nM]",IC50 (VEGFR2 (KDR)) [nM],"IC50 ([2]; Homo sapiens, SK-BR-3, 72 h) [nM]",IC50 (EGFR1 (HER-1)) [nM],"IC50 ([4]; Homo sapiens, 72 h) [nM]","IC50 ([3]; Homo sapiens, 96 h) [nM]",IC50 ([1]; 72 hours) [nM],IC50 ([2]; 72 hours) [nM],IC50 ([3]; 96 hours) [nM],IC50 ([4]; 72 hours) [nM]
"C=CC(=O)Nc1cc2c(Nc3ccc(Br)c(F)c3)ncnc2cc1OCCNC(=O)CN(C)C [Example 79, N-4-(4-bromo-3-fluoro-phenylamino)-7-[2-(2-dimethylamino-acetylamino)-ethoxy]-quinazolin-6-yl-acrylamide]",,1430,,78,,,84,313,723,10000
"C=CC(=O)Nc1cc2c(Nc3ccc(Br)cc3F)ncnc2cc1OCC(CC)NC(=O)CN(C)C (stereo not drawn) [Example 160, N-{4-(4-bromo-2-fluoro-phenylamino)-7-[2-(2-dimethylamino-acetylamino)-butoxy]-quinazolin-6-yl}-acrylamide]",55,984,96,23,6550,867,,,,
